Values quoted from earlier work, collected in patent US11351151B2, “Compound having anticancer activity and preparation method and application” (3D Medicines (Beijing) Co., Ltd., priority 2016, dated 2022).

Settings: liver cancer patients, phase III; cited from earlier work

CNC(=O)c1cc(Oc2ccc(NC(=O)Nc3ccc(Cl)c(C(F)(F)F)c3)cc2)ccn1 [Sorafenib]
ORR (overall response rate): 6.9%
TTP (time to progression): 4.0 months
